This is an account of results in US20260373169A1, “SYNERGISTIC COMBINATION FOR THE TREATMENT OF CANCER” (FUNDACIÓN UNIVERSITARIA SAN ANTONIO (UCAM), priority 2023, published 2026).

For series [1], the system named is MCF-7 cells. In words: Combination index / drug interaction (CompuSyn, Chou-Talalay), MCF-7. The class given is cell-based, human. Here is the method: IC50 values were calculated using GraphPad Prism software.
According to the theory of T. C.

Series [2] concerns MDA-MB-231 cells. Particulars: Glibenclamide alone; inhibiting the G1-S phase progression without inducing cell death or differentiation; cited from earlier work.
Series [3] relates to gliomas. Conditions: cited from earlier work.
The conditions of series [4]: weekly doses of 20 mg/m^2; cited from earlier work.
In series [5] the test system is U-87 μMG cells. In words: MTT cytotoxicity assay, U-87 μMG. Particulars: Homo sapiens, U-87 MG, read-out: U-87 μMG cell survival. Background: Tetrazolium dyes change colour on reduction, which living cells bring about.
Procedure: Glimepiride and its analogs were first prepared as a stock solution in DMSO, and then the drugs were dissolved fresh in culture medium enriched with Tween 80 (final concentration 0.05%).
Human cancer cells (MCF-7, A549 and U-87 μMG) and normal endothelial cells (HMEC-1) were obtained from American Type Cell Culture (Rockville, MD). The cancer cell lines (MCF-7, A549 and U-87 μMG) were cultured as monolayers in Dulbecco's modified Eagle's medium supplemented with 10% (v/v) fetal bovine serum and 1% (v/v) penicillin/streptomycin mixture (10,000 U/mL penicillin and 10 mg/mL streptomycin) in a 100% humidified atmosphere of 5% CO2 and 95% air at 37 °C. […]
The cytotoxic activity of the test compounds against cancer cell lines was tested using the standard MTT (3-(4,5-dimethylthiazol-2-yl)-2,5-diphenyltetrazolium bromide) colorimetric assay. […] Plates were gently shaken at room temperature until the formazan was completely dissolved and read at 540 nm using a microplate reader. With the XTT method, there is no dissolution step in DMSO (XTT is reduced to a highly water-soluble, orange product instead of the insoluble formazan), and the plate is read at 450 nm. […] IC50 values were calculated using GraphPad Prism software. […]
All data are expressed as mean±standard deviation (SD) and presented as a percentage of control (untreated cells) taken as 100%, n=3 (or more). […]
The mark [6] stands for this setting: analog 100-500 μM with Doxorubicin 0.225-0.900 μM, over a wide range of dose combinations.

As for `COc1ccc(Cl)cc1C(=O)NCCc1ccc(S(=O)(=O)NC(=O)NC2CCCCC2)cc1` [Glyburide], the “drug interaction with Doxorubicin” value in series [1] (setting [6]) is “strong or very strong synergy”. For the same molecule, the “effect in MDA-MB-231 cells” value in series [2] is “cytostatic effect”.
`Cc1ccc(S(=O)(=O)NC(=O)NN2CCCCCC2)cc1` [Tolazamide, 1-(azepan-1-yl)-3-(4-methylphenyl) sulfonylurea]: in series [1] (setting [6]), the “drug interaction with Doxorubicin” value is recorded as “strong or very strong synergy”.
With `COc1cccc2c1C(=O)c1c(O)c3c(c(O)c1C2=O)C[C@@](O)(C(=O)CO)C[C@@H]3O[C@H]1C[C@H](N)[C@H](O)[C@H](C)O1` [Doxorubicin, (7S,9S)-7-[(2R,4S,5S,6S)-4-amino-5-hydroxy-6 methyloxan-2-yl]oxy-6,9,11-trihydroxy-9-(2-hydroxyacetyl)-4-methoxy-8,10-dihydro-7H tetracene-5,12-dione], the “clinical results vs systemic administration” value in series [3] (intracerebral administration, stage III or IV gliomas, Ommaya reservoir) is recorded as “Significantly better results”. In addition, the “clinical efficacy in certain brain tumors, such as gliomas” value in series [3] (systemic administration) is “very limited efficacy”. Besides, the neurotoxicity result in series [3] (very high systemic doses) is given as “highly neurotoxic”. The “incidence of congestive heart failure” value in series [4] is recorded as “lower incidence of congestive heart failure”. Moreover, the viability at 0.52 µM in series [5] is 75.6%.
For `Cc1ccc(S(=O)(=O)NC(=O)NN2CC3CCCC3C2)cc1` (stereo not drawn) [Gliclazide, 1-(3,3a,4,5,6,6a-hexahydro-1H-cyclopenta[c]pyrrol-2-yl)-3-(4-methylphenyl) sulfonylurea], the “drug interaction with Doxorubicin” value in series [1] (setting [6]) is “strong or very strong synergy”.
With `COc1ccc2c(c1)C(=O)N(CCc1ccc(S(=O)(=O)NC(=O)NC3CCCCC3)cc1)C(=O)C2(C)C` [Gliquidone], the “drug interaction with Doxorubicin” value in series [1] (100 μM analog in combination with Doxorubicin (0.225-0.900 μM)) is reported as “additive effect or slight antagonism”; in series [1] (Gliquidone with Doxorubicin, dose combinations other than 100 μM), “synergistic effects”.
For `CCCNC(=O)NS(=O)(=O)c1ccc(Cl)cc1` [Chlorpropamide, 1-(4-chlorophenyl) sulfonyl-3-propylurea], in series [1] (setting [6]), the “drug interaction with Doxorubicin” value is given as “strong or very strong synergy”.
